Laboratory results from ChEMBL document CHEMBL6096696, “Structure-Activity Relationship Studies of an Autophagy Inhibitor That Targets the ATG14L-Beclin1 Protein-Protein Interaction Reveal Modifications That Improve Potency and Solubility and Maintain Selectivity” (J Med Chem, 2025).
Converted amounts (≈) assume the structure as drawn. The source made the active and inactive calls. The rule behind the calls is not given here.

Key:
[1] = system: HeLa; assay: Inhibition of autophagy in human HeLa cells expressing eGFP-LC3 at 50 uM preincubated for 20 hrs followed by chloroquine addition and measured after 4 hrs by Hoechst 33342 staining based automated fluorescence microscopy analysis; assay type: functional, cell-based; conditions: time 24.0 hrs
[2] = system: HEK293T; assay: Inhibition of C-terminal Nano-luc tagged ATG14L/C-terminal Halo-tagged Beclin 1 (unknown origin) PPI tranfected with HEK293T cells using […] at 100 uM incubated for 24 hrs by […] assay relative to control; assay type: cell-based; conditions: Homo sapiens, values are per cent of control
[3] = Kinetic aqueous solubility of compound in PBS at pH 7.4 by absorbance based analysis; assay type: physicochemical; conditions: read-out: Kinetic_solubility
[4] = system: HEK293T; assay: Inhibition of C-terminal Nano-luc tagged UVRAG/C-terminal Halo-tagged Beclin 1 (unknown origin) PPI tranfected with HEK293T cells using […] at 100 uM incubated for 24 hrs by […] assay relative to control; assay type: cell-based; conditions: Homo sapiens, values are per cent of control
[5] = system: HeLa; assay: Cytotoxicity against human HeLa cells expressing eGFP-LC3 at 100 uM; assay type: functional, cell-based
[6] = Selectivity ratio of inhibition of C-terminal Nano-luc tagged UVRAG/C-terminal Halo-tagged Beclin 1 (unknown origin) PPI tranfected with HEK293T cells to inhibition of C-terminal Nano-luc tagged ATG14L/C-terminal Halo-tagged Beclin 1 (unknown origin) PPI tranfected with HEK293T cells
[7] = Inhibition of C-terminal Nano-luc tagged ATG14L/C-terminal Halo-tagged Beclin 1 (unknown origin) PPI tranfected with HEK293T cells using […] incubated for 24 hrs by […] assay; assay type: cell-based, Homo sapiens
[8] = system: A549; assay: Inhibition of autophagy in human A549 cells assessed as increase in fluorescence at 20 uM preincubated with DQ-BSA for 1 hr followed by compound addition and measured after 4 hrs by Hoechst 33342 staining based automated fluorescence microscopy analysis; assay type: functional, cell-based
[9] = system: A549; assay: Inhibition of autophagy in human A549 cells assessed as increase in fluorescence at 100 uM preincubated with DQ-BSA for 1 hr followed by compound addition and measured after 4 hrs by Hoechst 33342 staining based automated fluorescence microscopy analysis; assay type: functional, cell-based
[10] = target: Beclin 1-associated autophagy-related key regulator (Homo sapiens) (UniProt Q6ZNE5); assay: Induction of stabilization of ATG14L in human A549 cells assessed as increase in melting temperature at 100 uM incubated for 24 hrs by CETSA method; assay type: cell-based
[11] = system: HeLa; assay: Inhibition of autophagy in human HeLa cells expressing eGFP-LC3 assessed as increase in LC3-II at 100 uM preincubated for 20 hrs followed by chloroquine addition and measured after 4 hrs by Hoechst 33342 staining based automated fluorescence microscopy analysis; assay type: functional, cell-based; conditions: time 24.0 hrs
[12] = system: A549; assay: Inhibition of autophagy in human A549 cells assessed as increase in fluorescence at 100 nM preincubated with DQ-BSA for 1 hr followed by compound addition and measured after 4 hrs by Hoechst 33342 staining based automated fluorescence microscopy analysis; assay type: functional, cell-based
[13] = system: HeLa; assay: Inhibition of autophagy in human HeLa cells expressing eGFP-LC3 assessed as decrease in GFP puncta/cell at 100 uM preincubated for 20 hrs followed by chloroquine addition and measured after 4 hrs by Hoechst 33342 staining based automated fluorescence microscopy analysis; assay type: functional; conditions: time 24.0 hrs
[14] = system: A549; assay: Inhibition of autophagy in human A549 cells assessed as increase in fluorescence at 100 uM measured after 4 hrs by Hoechst 33342 staining based […] microscopy analysis; assay type: functional, cell-based
[15] = system: A549; assay: Inhibition of autophagy in human A549 cells assessed as increase in fluorescence at 12.5 uM preincubated with DQ-BSA for 1 hr followed by compound addition and measured after 4 hrs by Hoechst 33342 staining based automated fluorescence microscopy analysis; assay type: functional, cell-based
[16] = Inhibition of C-terminal Nano-luc tagged UVRAG/C-terminal Halo-tagged Beclin 1 (unknown origin) PPI tranfected with HEK293T cells using […] incubated for 24 hrs by […] assay; assay type: cell-based, Homo sapiens

Sequence of Beclin 1-associated autophagy-related key regulator (Homo sapiens) (Q6ZNE5 whole entry): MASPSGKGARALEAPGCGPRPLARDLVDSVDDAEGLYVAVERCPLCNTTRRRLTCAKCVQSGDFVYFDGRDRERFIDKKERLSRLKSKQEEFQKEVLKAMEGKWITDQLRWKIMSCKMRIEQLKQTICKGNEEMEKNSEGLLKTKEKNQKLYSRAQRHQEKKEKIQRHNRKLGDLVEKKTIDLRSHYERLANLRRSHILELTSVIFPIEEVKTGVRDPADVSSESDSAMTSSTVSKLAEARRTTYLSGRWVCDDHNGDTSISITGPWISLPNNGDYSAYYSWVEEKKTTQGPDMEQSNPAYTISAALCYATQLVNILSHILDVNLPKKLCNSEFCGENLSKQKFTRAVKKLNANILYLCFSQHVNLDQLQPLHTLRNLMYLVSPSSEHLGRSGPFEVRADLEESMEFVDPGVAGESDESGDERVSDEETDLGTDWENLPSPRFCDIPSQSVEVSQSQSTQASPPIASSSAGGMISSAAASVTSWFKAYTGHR

| SMILES | residual binding, % of control [2] [%] | solubility kinetic [3] [µM] | residual binding, % of control [4] [%] | Activity [5] | Selectivity ratio [6] | IC50 [7] [µM] | other results |
| --- | --- | --- | --- | --- | --- | --- | --- |
| O=C1COc2ccc(-c3cccc(Cl)c3)cc2N1Cc1noc(C2CCC2)n1 | 85.1 | > 100 | 116 | Active | 1.32 | – | inhibition [1]: inactive |
| Cc1cccc(-c2ccc3c(c2)N(Cc2noc(C4CCC4)n2)C(=O)CO3)c1C | 73.1 | > 100 | 95.3 | Active; Compound Showed Less Cytotoxicity | 1.3 | 12.5 | inhibition [1]: Active |
| CCN(CC)CCCC(C)Nc1ccnc2cc(Cl)ccc12 (stereo not given) | – | – | – | – | – | – | inhibition [8]: inactive |
| CCCN1C(=O)COc2ccc(-c3cccc(C)c3)cc21 | 57.3 | > 100 | 91.5 | Active | 1.59 | 42 | inhibition [9]: Active |
| CCN1C(=O)COc2ccc(S(=O)(=O)Nc3cccc(C)c3C)cc21 | 95.9 | > 100 | – | – | – | – | Activity [10]: inactive; inhibition [11]: Active |
| Cc1cccc(NS(=O)(=O)c2ccc3c(c2)N(Cc2noc(C4CCC4)n2)C(=O)CO3)c1C | 60.6 | 50 (≈ 23.4 µg/mL) | – | – | – | 33.9 | – |
| Cc1c(Cl)cccc1-c1ccc2c(c1)N(Cc1noc(C3CCC3)n1)C(=O)CO2 | 79.7 | > 100 | 120 | Active; Compound Showed Less Cytotoxicity | 1.5 | – | – |
| O=C1COc2ccc(-c3cccc(Cl)c3Cl)cc2N1Cc1noc(C2CCC2)n1 | 86.8 | > 100 | 101 | Active; Compound Showed Less Cytotoxicity | 1.17 | – | – |
| CCCN1C(=O)COc2ccc(-c3ccccc3O)cc21 | 82.5 | > 100 | 104 | Active | 1.26 | – | – |
| CCCN1C(=O)COc2ccc(-c3ccccc3OC)cc21 | 79.5 | > 100 | 100 | Active | 1.26 | – | – |
| O=C1COc2ccc(-c3ccccc3C(F)(F)F)cc2N1Cc1noc(C2CCC2)n1 | 77.4 | > 100 | 98 | Active; Compound Showed Less Cytotoxicity | 1.27 | – | – |
| O=C1COc2ccc(-c3ccccc3Cl)cc2N1Cc1noc(C2CCC2)n1 | 89.9 | > 100 | 106 | Active; Compound Showed Less Cytotoxicity | 1.17 | – | – |
| CCCN1C(=O)COc2ccc(-c3ccccc3C)cc21 | 65 | > 100 | 84.6 | Active | 1.3 | 42.4 | inhibition [9]: Active |
| Cc1cccc(-c2ccc3c(c2)N(Cc2noc(C4CCC4)n2)C(=O)CO3)c1Cl | 80.5 | > 100 | 117 | Active; Compound Showed Less Cytotoxicity | 1.45 | – | – |
| CCCN1C(=O)COc2ccc(-c3ccncc3)cc21 | 106 | > 100 | 108 | Active | 1.03 | – | – |
| CO/C1=C\C(C)=C\[C@@H](C)[C@@H](O)[C@@H](C)C/C(C)=C/C=C/[C@H](OC)[C@@H]([C@@H](C)[C@@H](O)[C@H](C)[C@@]2(O)C[C@@H](O)[C@H](C)[C@@H](C(C)C)O2)OC1=O | – | – | – | – | – | – | inhibition [12]: inactive |
| CCCN1C(=O)COc2ccc(-c3cccc(OC(F)(F)F)c3)cc21 | 75.3 | > 100 | 92.4 | Active | 1.22 | 24.3 | inhibition [9]: Active |
| CCCN1C(=O)COc2ccc(S(=O)(=O)Nc3cccc(C)c3C)cc21 | 72.3 | > 100 | – | – | – | 56.3 | inhibition [13]: Active; Compared With Chloroquine And Compound 1E; inhibition [14]: Active; Activity [10]: Active; inhibition [9]: Active; Compound Showed Normal Functioning Of Lysosomes And Endosomal Trafficking; inhibition [11]: Active |
| CC(C)c1ccccc1-c1ccc2c(c1)N(Cc1noc(C3CCC3)n1)C(=O)CO2 | 71.6 | > 100 | 92.9 | Active; Compound Showed Less Cytotoxicity | 1.29 | – | – |
| O=C1COc2ccc(-c3ccc(Cl)cc3Cl)cc2N1Cc1noc(C2CCC2)n1 | 89.7 | > 100 | 105 | Active | 1.17 | – | inhibition [1]: inactive |
| CCCN1C(=O)COc2ccc(-c3ccccc3)cc21 | 63.2 | > 100 | 95.7 | Active | 1.51 | 56.6 | inhibition [9]: Active |
| Nc1ncc(-c2ccnc(Nc3ccncc3)n2)c(CC2CC2)n1 | – | – | – | – | – | – | inhibition [15]: inactive |
| CCCN1C(=O)COc2ccc(-c3ccc(Cl)cc3Cl)cc21 | 65.8 | > 100 | 82.6 | Active | 1.25 | 28.8 | inhibition [9]: Active |
| C[C@@H]1COCCN1c1cc(=O)n2c(n1)N(Cc1cncc(Cl)c1)[C@H](C(F)(F)F)CC2 | – | – | – | – | – | – | inhibition [15]: inactive |
| CCCN1C(=O)COc2ccc(-c3cccc(C)c3C)cc21 | 63 | > 100 | 77.7 | Active | 1.23 | 32.3 | inhibition [9]: Active; IC50 [16]: 42.2 µM |
| CCCN1C(=O)COc2ccc(-c3ccc(F)cc3F)cc21 | 63.8 | > 100 | 84.2 | Active | 1.32 | – | – |
| Cc1c(Cl)cccc1Nc1ccc2c(c1)N(Cc1noc(C3CCC3)n1)C(=O)CO2 | 83.9 | 100 (≈ 42.5 µg/mL) | 118 | – | 1.4 | – | – |
